Data: ChEMBL document CHEMBL3272028, “Some substituted naphthazarins as potential anticancer agents” (1976)
Active and inactive are the calls of the source. The rule behind the calls is not given here.

Key:
L1210 = experiment: Antitumor activity against mouse L1210 cells allografted in mouse; type: functional, cell-based
P388 [1] = experiment: Antitumor activity against mouse P388 cells allografted in mouse at 50 mg/kg relative to control; type: functional
P388 [2] = experiment: Antitumor activity against mouse P388 cells allografted in mouse at 400 mg/kg relative to control; type: functional
P388 [3] = experiment: Antitumor activity against mouse P388 cells allografted in mouse; type: functional, cell-based
[4] = Growth inhibition of human 9KB cells at 1.8 ug/ml relative to control; type: functional; conditions: read-out: GI

| Compound | Activity (L1210) | T/C (P388 [1]) | T/C (P388 [2]) | Activity (P388 [3]) | inhibition of growth at 1.8 µg/mL [4] [%] |
| --- | --- | --- | --- | --- | --- |
| CC1=C(C)C(=O)c2c(OC(=O)c3ccccc3)ccc(OC(=O)c3ccccc3)c2C1=O | inactive | 128 | – | – | – |
| CC(=O)Oc1ccc(OC(C)=O)c2c1CC(C)=C(C)C2 | inactive | – | 126 | – | – |
| CC(=O)Oc1ccc(OC(C)=O)c2c1C(=O)C=CC2=O | inactive | – | – | inactive | 50 |
